Values joined by “and” are separate entries in the source; they are usually repeats but may differ in a detail not shown here. Equal entries are not always repeated. Where two headings read alike, the source gives them in different places.
Assays:
[1] = biological target: T1, recombinant human active p38α protein, MK2 and Wee1 (Homo sapiens, UniProt Q16539); test: p38α–Wee1 kinase assay (western blot); type: biochemical; details: 1 µM
T1 construct: purchased Abcam (p38α, MK2); Novus Biologicals (Wee1) ab271647; ab79910; H00007465-P01
Protocol: Briefly, 200 ng of corresponding proteins were preincubated with 1 µM 2015 or DMSO in a kinase assay buffer (Abcam, ab189135; total volume, 100 µL) for 30 min at 37 °C. Kinase activity was induced with 20 µM ATP. Following a 30-min incubation at 37 °C, the reaction was stopped by protein inactivation (95 °C, 5 min in Laemmli buffer). The antibodies and dilutions for immunoblotting are listed in the Nature Portfolio Reporting Summary.

KAP^2D cells = test: cell size and DNA content analysis in KAP^2D cells (flow cytometry); type: cell-based, mouse; details: 1 µM, 1 day
Protocol: For DNA content analysis, cells were fixed with ethanol, washed and resuspended in PBS containing 50 µg ml^−1 propidium iodide (Invitrogen) and 250 µg ml^−1 RNase A (Qiagen). Apoptosis was analyzed with the FITC annexin V apoptosis detection kit (Biolegend). Both measurements were performed with FACS Canto II (BD) and physical parameters were used to exclude cell debris and cell doublets.

KMP liver metastasis = test: survival of mice with KMP liver metastasis; type: in vivo, mouse
Protocol: Subcutaneous injection, splenic seeding or cecum injection of organoids was performed in 8–10-week-old C57BL/6 N/Crl, Rag2^−/− (B6.Cg-Rag2^tm1.1Cgn/J), or CB17 Scid beige (CB17.Cg-Prkdc^scidLyst^bg-J/Crl) mice, obtained from Charles River. The organoids were dissociated into single cells, washed with PBS and injected in a 1:1 mixture of PBS and Matrigel. For murine organoids, 1 × 10^5 cells were injected into the left and right flanks or the spleen capsule and 2 × 10^6 cells were injected into the cecum wall. For human organoids, 4 × 10^5 cells were injected into the flanks of CB17 Scid beige mice. For splenic seeding and cecum injection, mice were anaesthetized using ketamine (100 mg kg^−1, intraperitoneally) and xylazin (10 mg/kg, intraperitoneally) in NaCl and a small laparotomy below the thorax was performed.

[2] = tested on: subcutaneous human PDO6 CRCs; test: treatment of subcutaneous human PDO6 CRCs in CB17 Scid beige mice; type: in vivo, mouse
Protocol: Subcutaneous injection, splenic seeding or cecum injection of organoids was performed in 8–10-week-old C57BL/6 N/Crl, Rag2^−/− (B6.Cg-Rag2^tm1.1Cgn/J), or CB17 Scid beige (CB17.Cg-Prkdc^scidLyst^bg-J/Crl) mice, obtained from Charles River. The organoids were dissociated into single cells, washed with PBS and injected in a 1:1 mixture of PBS and Matrigel. For murine organoids, 1 × 10^5 cells were injected into the left and right flanks or the spleen capsule and 2 × 10^6 cells were injected into the cecum wall. For human organoids, 4 × 10^5 cells were injected into the flanks of CB17 Scid beige mice. For splenic seeding and cecum injection, mice were anaesthetized using ketamine (100 mg kg^−1, intraperitoneally) and xylazin (10 mg/kg, intraperitoneally) in NaCl and a small laparotomy below the thorax was performed. Upon injection, the puncture region was washed with prewarmed H2O. Within the first week after operation, the mice were treated with the analgesics carprofen and metamizol. The maximum size of individual tumor nodules permitted by the regional authority of the state of Baden-Wuerttemberg (Regierungspraesidium Tübingen: subcutaneous tumor nodules, 1 cm; other tumor nodules, 0.5 cm) was not exceeded.

[3] = full blood analysis of mice treated for 4 days or 10 weeks (Sysmex KX-21N); type: in vivo, mouse; details: for Hemoglobin / MCV / MCH / MCHC: individual animals; for Hemoglobin: ED Fig. 10a; for MCV: ED Fig. 10b; for MCH: ED Fig. 10c; for MCHC: ED Fig. 10d; for Hematocrit (%): mice
From the text: We conducted a daily treatment of wild-type mice with 2015 or carrier for either 4 days or 10 weeks and subsequently quantified leukocytes, platelets and erythrocytes. Furthermore, we determined the hematocrit and the hemoglobin concentration and calculated routinely used red blood cell indices (mean corpuscular volume (MCV), mean corpuscular hemoglobin (MCH) and mean corpuscular hemoglobin concentration (MCHC)). […] No mice were excluded during treatment studies. […] GFP imaging of tumors was performed using a Hamamatsu imaging system. For quantification of compounds in the murine plasma, 20 μl of tail-vein blood was diluted with 80 μl of heparin solution, before 200 μl of ice-cold acetonitrile with a defined internal standard was added. The samples were sonicated and centrifuged and the supernatant was subjected to liquid chromatography-mass spectrometry quantification. Full blood analyses were performed with the Sysmex KX-21N hematology analyzer.

[4] = weight development of treated mice; type: in vivo, mouse
Protocol: No mice were excluded during treatment studies. […] GFP imaging of tumors was performed using a Hamamatsu imaging system. For quantification of compounds in the murine plasma, 20 μl of tail-vein blood was diluted with 80 μl of heparin solution, before 200 μl of ice-cold acetonitrile with a defined internal standard was added. The samples were sonicated and centrifuged and the supernatant was subjected to liquid chromatography-mass spectrometry quantification. Full blood analyses were performed with the Sysmex KX-21N hematology analyzer.

340 wild-type kinases [5] = biological target: T2, 340 wild-type kinases (Homo sapiens, UniProt P28482); test: selectivity profiling in a panel of 340 wild-type kinases (Reaction Biology Europe); type: binding
T2 construct: purchased Reaction Biology Europe

340 wild-type kinases [6] = biological target: T3, 340 wild-type kinases (Homo sapiens, UniProt Q09013); test: as above; type: binding
T3 construct: purchased Reaction Biology Europe
T3 sequence (Q09013 1-629): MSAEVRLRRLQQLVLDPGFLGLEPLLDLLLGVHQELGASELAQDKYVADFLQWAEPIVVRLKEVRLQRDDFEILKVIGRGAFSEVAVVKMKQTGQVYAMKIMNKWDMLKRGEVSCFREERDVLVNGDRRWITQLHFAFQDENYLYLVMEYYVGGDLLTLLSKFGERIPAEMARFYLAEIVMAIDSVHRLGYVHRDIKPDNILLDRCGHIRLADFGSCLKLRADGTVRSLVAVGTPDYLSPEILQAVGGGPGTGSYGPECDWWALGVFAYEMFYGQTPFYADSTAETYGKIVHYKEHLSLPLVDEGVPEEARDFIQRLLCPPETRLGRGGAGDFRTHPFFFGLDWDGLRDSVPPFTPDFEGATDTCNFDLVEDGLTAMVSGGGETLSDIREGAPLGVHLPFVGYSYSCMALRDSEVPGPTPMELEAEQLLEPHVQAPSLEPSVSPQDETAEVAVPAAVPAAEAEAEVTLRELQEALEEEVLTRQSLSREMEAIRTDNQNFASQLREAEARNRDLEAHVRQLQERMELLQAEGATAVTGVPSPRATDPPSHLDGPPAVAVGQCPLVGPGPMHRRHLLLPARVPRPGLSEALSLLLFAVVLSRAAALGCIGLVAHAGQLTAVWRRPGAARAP

340 wild-type kinases [7] = biological target: T4, 340 wild-type kinases (Homo sapiens, UniProt Q16513); test: as above; type: binding
T4 construct: purchased Reaction Biology Europe
T4 sequence (Q16513 whole entry): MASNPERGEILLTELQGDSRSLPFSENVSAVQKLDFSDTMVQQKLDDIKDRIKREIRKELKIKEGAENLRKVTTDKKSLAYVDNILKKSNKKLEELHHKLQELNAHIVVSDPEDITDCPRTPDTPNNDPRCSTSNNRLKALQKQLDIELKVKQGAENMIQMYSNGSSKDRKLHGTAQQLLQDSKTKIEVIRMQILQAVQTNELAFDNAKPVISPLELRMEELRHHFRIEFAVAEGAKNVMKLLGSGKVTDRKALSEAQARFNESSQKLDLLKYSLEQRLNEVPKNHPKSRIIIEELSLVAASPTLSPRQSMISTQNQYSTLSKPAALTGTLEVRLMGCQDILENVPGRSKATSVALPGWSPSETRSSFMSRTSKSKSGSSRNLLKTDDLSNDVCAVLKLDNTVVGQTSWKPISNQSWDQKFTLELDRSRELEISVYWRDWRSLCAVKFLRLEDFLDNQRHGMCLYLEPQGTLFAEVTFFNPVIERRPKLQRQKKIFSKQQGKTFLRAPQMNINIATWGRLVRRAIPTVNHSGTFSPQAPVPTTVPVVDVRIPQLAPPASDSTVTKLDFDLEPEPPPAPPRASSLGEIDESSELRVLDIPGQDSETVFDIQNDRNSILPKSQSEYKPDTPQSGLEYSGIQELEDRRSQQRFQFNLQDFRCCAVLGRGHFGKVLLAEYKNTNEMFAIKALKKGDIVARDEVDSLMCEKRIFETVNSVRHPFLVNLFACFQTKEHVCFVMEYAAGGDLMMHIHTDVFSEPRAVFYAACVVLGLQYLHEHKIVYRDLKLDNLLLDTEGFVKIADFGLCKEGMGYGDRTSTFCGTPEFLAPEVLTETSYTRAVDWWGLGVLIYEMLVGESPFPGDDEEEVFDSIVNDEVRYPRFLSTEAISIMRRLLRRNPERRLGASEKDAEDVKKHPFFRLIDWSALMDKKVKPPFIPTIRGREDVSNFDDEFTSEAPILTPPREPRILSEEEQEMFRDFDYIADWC

T2 sequence (P28482 whole entry): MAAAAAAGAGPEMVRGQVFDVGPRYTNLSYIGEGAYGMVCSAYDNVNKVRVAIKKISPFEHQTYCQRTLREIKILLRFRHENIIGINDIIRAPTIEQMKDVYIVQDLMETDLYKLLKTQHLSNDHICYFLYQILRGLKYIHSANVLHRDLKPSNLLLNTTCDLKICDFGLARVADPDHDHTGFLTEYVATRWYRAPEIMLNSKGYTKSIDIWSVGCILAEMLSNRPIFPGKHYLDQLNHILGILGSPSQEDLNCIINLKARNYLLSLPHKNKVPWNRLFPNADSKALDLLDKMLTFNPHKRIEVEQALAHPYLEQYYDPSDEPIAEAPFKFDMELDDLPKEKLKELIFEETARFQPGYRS
T1 sequence (Q16539 whole entry): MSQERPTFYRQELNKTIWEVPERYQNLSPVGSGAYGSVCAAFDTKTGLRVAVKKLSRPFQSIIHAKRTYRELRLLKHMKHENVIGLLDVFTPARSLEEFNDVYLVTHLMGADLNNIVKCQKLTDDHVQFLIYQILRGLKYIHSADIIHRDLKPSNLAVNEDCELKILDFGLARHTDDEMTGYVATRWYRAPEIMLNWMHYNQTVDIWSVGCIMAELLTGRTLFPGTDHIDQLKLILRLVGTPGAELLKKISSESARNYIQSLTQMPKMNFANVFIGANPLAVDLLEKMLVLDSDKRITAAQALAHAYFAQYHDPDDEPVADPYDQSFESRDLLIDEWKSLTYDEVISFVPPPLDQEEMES

CNC(=O)c1ccc2c(c1)C(=O)c1ccc(Nc3ccc(F)c(NC(=O)C4CC4)c3)cc1CC2 [Compound 2015]
p38α–MK2-mediated phosphorylation of Wee1 at S642 (in words) [1]: blocked | DNA content (in words) (KAP^2D cells): strong induction of aneuploidy and polyploidy | Survival (d of treatment) (KMP liver metastasis; individual mice, KMP liver metastasis, treatment started 1 week after transplantation): 42 days and 50 days and 29 days and 31 days and 35 days and 44 days | Kaplan–Meier event entry in 2015 (1 or 0) (KMP liver metastasis; individual mice, KMP liver metastasis, meaning of 1/0 not given): 1 and 0 | survival of mice with KMP liver metastasis (in words) (KMP liver metastasis; long-term treatment): significantly prolonged survival | Tumor weight ([2]; individual subcutaneous PDO6 tumors, treated 4 weeks): 25 g and 16 g and 4 g and 32 g | tumor size of PDO6-derived CRCs (in words) ([2]; treated for 4 weeks): strong reduction in tumor size | blood cell fractions versus carrier (in words) ([3]; 4 days or 10 weeks daily treatment): no relevant differences | Hemoglobin ([3]; mice treated 10w): 14.6 g/dL and 14.3 g/dL and 13.7 g/dL and 14.0 g/dL | MCV ([3]; mice treated 10w): 52.0 fL and 52.3 fL and 51.4 fL and 51.7 fL | MCH ([3]; mice treated 10w): 14.2 pg and 14.0 pg and 13.8 pg | MCHC ([3]; mice treated 10w): 27.4 g/dL and 26.8 g/dL and 26.9 g/dL and 26.6 g/dL | Hemoglobin ([3]; mice treated 4d): 14.7 g/dL and 15.4 g/dL and 14.6 g/dL and 14.5 g/dL | MCV ([3]; mice treated 4d): 52.3 fL and 51.8 fL and 51.9 fL and 51.5 fL | MCH ([3]; mice treated 4d): 14.5 pg and 14.4 pg and 13.7 pg | MCHC ([3]; mice treated 4d): 27.7 g/dL and 26.4 g/dL and 26.6 g/dL | Hematocrit (%) ([3]; 10w treatment): 53.3% and 53.4% and 50.9% and 52.6% | Hematocrit (%) ([3]; 4d treatment): 53.1% and 55.5% and 55.2% and 54.6% | Weight development (%) ([4]; day 12): 100.0% and 97.9% and 100.9% and 99.3% and 97.1% | Weight development (%) ([4]; day 14): 100.9% and 97.9% and 97.4% and 99.6% and 101.1% and 98.2% and 100.0% | Weight development (%) ([4]; day 16): 102.6% and 98.7% and 97.0% and 100.9% and 101.1% and 99.3% | Weight development (%) ([4]; day 18): 103.8% and 98.7% and 97.4% and 101.3% and 100.7% and 100.0% and 101.8% | Weight development (%) ([4]; day 20): 102.6% and 98.7% and 97.9% and 101.3% and 100.4% and 100.0% | Weight development (%) ([4]; day 22): 106.4% and 100.4% and 98.7% and 100.0% and 103.3% and 101.1% and 101.4% | Weight development (%) ([4]; day 24): 105.1% and 103.0% and 100.0% and 101.8% and 100.4% and 101.1% | Weight development (%) ([4]; day 26): 106.4% and 100.8% and 101.7% and 102.2% and 101.5% and 100.4% and 101.1% | Weight development (%) ([4]; day 28): 106.8% and 103.4% and 100.9% and 101.3% and 103.7% and 100.7% and 101.1% | Weight development (%) ([4]; day 30): 110.3% and 105.1% and 101.7% and 105.3% and 101.5% and 100.7% and 101.1% | Weight development (%) ([4]; day 32): 106.0% and 105.5% and 102.6% and 102.2% and 102.9% and 101.4% | Weight development (%) ([4]; day 34): 106.8% and 104.7% and 100.9% and 103.5% and 106.2% and 101.1% and 100.4% | Weight development (%) ([4]; day 36): 108.1% and 103.8% and 103.9% and 105.7% and 107.0% and 99.6% and 100.0% | Weight development (%) ([4]; day 38): 109.8% and 107.2% and 103.0% and 106.1% and 109.9% and 100.7% and 101.4% | Weight development (%) ([4]; day 40): 110.3% and 103.4% and 103.0% and 106.6% and 100.7% and 99.3% | Weight development (%) ([4]; day 42): 109.4% and 106.4% | body weight over time (in words) ([4]; mouse, in vivo): did not lose body weight | remaining activity at 0.2 µM (340 wild-type kinases [5]; 0.2 µM 2015, read-out: ERK2 residual activity): 99.1% | remaining activity at 1 µM (340 wild-type kinases [5]; 1 µM 2015, read-out: ERK2 residual activity): 90.5% | remaining activity at 0.2 µM (340 wild-type kinases [5]; ERK2, 0.2 µM, read-out: residual activity): 99.1% | remaining activity at 1 µM (340 wild-type kinases [5]; ERK2, 1 µM, read-out: residual activity): 90.5% | remaining activity at 0.2 µM (340 wild-type kinases [6]; 0.2 µM 2015, read-out: DMPK residual activity): 82.9% | remaining activity at 1 µM (340 wild-type kinases [6]; 1 µM 2015, read-out: DMPK residual activity): 90.2% | remaining activity at 0.2 µM (340 wild-type kinases [6]; DMPK, 0.2 µM, read-out: residual activity): 82.9% | remaining activity at 1 µM (340 wild-type kinases [6]; DMPK, 1 µM, read-out: residual activity): 90.2% | remaining activity at 0.2 µM (340 wild-type kinases [7]; 0.2 µM 2015, read-out: PRK2 residual activity): 89.2% | remaining activity at 1 µM (340 wild-type kinases [7]; 1 µM 2015, read-out: PRK2 residual activity): 91.1% | remaining activity at 0.2 µM (340 wild-type kinases [7]; PRK2, 0.2 µM, read-out: residual activity): 89.2% | remaining activity at 1 µM (340 wild-type kinases [7]; PRK2, 1 µM, read-out: residual activity): 91.1%

Reference: publication PMC11864979, “First-in-class ultralong-target-residence-time p38α inhibitors as a mitosis-targeted therapy for colorectal cancer” (Nature Cancer, 2025)
